# Read-outs that look alike come from different tables or passages of the source.
# How the values were obtained:
# VRSA 5 [1] = assay: microbe, parasite or virus in culture; details: Staphylococcus aureus
# S. aureus NRS 384 [2] = assay: microbe, parasite or virus in culture; details: Staphylococcus aureus, NRS384
# S. enteritidis [3] = assay: microbe, parasite or virus in culture; details: Salmonella enterica
# P. aeruginosa 50573 [4] = assay: microbe, parasite or virus in culture; details: Pseudomonas aeruginosa
# E. coli 21922 [5] = assay: microbe, parasite or virus in culture; details: Escherichia coli
# P. aeruginosa 48982 [6] = assay: microbe, parasite or virus in culture; details: Pseudomonas aeruginosa
# S. typhimurium LT2 [7] = assay: microbe, parasite or virus in culture; details: Salmonella enterica
# A. baumannii 1605 [8] = assay: microbe, parasite or virus in culture; details: Acinetobacter baumannii
# A baumannii 19606 [9] = assay: microbe, parasite or virus in culture; details: Acinetobacter baumannii
# L. monocytogenes 191112 [10] = assay: microbe, parasite or virus in culture; details: Listeria monocytogenes
# S. aureus ATCC 6538 [11] = assay: microbe, parasite or virus in culture; details: Staphylococcus aureus, ATCC6538
# S. flexneri 1a = assay: MIC, broth microdilution (CLSI); format: cell-based; details: enteric pathogens
# Method: (§1) The minimum inhibitory concentration (MIC) of the peptides (in uM/ml) and control antibiotics (vancomycin and gentamicin) in μg/mL, were determined using the broth microdilution method according to the guidelines of the Clinical and Laboratory Standards Institute (CLSI) guidelines. See CLSI. 2007. Methods for dilution antimicrobial susceptibility tests for bacteria that grow aerobically; approved standard M7-A7. CLSI, Wayne, Pa.
# S. aureus RN 4220 = assay: MIC, broth microdilution (CLSI); format: cell-based
# Method: as §1
# S. aureus NRS 382 [12] = assay: microbe, parasite or virus in culture; details: Staphylococcus aureus, NRS382
# E. cloacae 1134 [13] = assay: microbe, parasite or virus in culture; details: Enterobacter cloacae
# K. pneumonia NR 41920 [14] = assay: microbe, parasite or virus in culture; details: Klebsiella pneumoniae, NR41920
# S. aureus NRS 383 [15] = assay: microbe, parasite or virus in culture; details: Staphylococcus aureus, NRS383
# P. aeruginosa 31041 [16] = assay: microbe, parasite or virus in culture; details: Pseudomonas aeruginosa
# E. faecium 700221 [17] = assay: microbe, parasite or virus in culture; details: Enterococcus faecium
# K. pneumonia NR 41928 [18] = assay: microbe, parasite or virus in culture; details: Klebsiella pneumoniae, NR41928
# P. aeruginosa 31040 [19] = assay: microbe, parasite or virus in culture; details: Pseudomonas aeruginosa
# K. pneumoniae 1706 [20] = assay: microbe, parasite or virus in culture; details: Klebsiella pneumoniae
# A. baumannii 1747 [21] = assay: microbe, parasite or virus in culture; details: Acinetobacter baumannii
# VRSA 10 [22] = assay: microbe, parasite or virus in culture; details: Staphylococcus aureus
# S. epidermidis NRS 101 [23] = assay: microbe, parasite or virus in culture; details: Staphylococcus epidermidis, NRS101
# S. aureus NRS 383 [24] = details: S. aureus NRS 383
# S. aureus NRS 382 [25] = details: S. aureus NRS 382
# S. typhimurium LT2 [26] = details: S. typhimurium LT2; enteric pathogens
# A. baumannii 1747 [27] = details: A. baumannii 1747
# A. baumannii 1605 [28] = details: A. baumannii 1605; ESKAPE pathogens
# S. aureus NRS 384 [29] = details: S. aureus NRS 384; ESKAPE pathogens
# S. epidermidis NRS 101 [30] = details: S. epidermidis NRS 101
# K. pneumonia NR 41928 [31] = details: K. pneumonia NR 41928; ESKAPE pathogens
# S. enteritidis [32] = details: S. enteritidis; enteric pathogens
# K. pneumonia NR 41920 [33] = details: K. pneumonia NR 41920; ESKAPE pathogens
# E. coli 21922 [34] = details: E. coli 21922; enteric pathogens
# E. faecium 700221 [35] = details: E. faecium 700221; ESKAPE pathogens
# P. aeruginosa 48982 [36] = details: P. aeruginosa 48982
# A baumannii 19606 [37] = details: A baumannii 19606
# S. aureus ATCC 6538 [38] = details: S. aureus ATCC 6538
# P. aeruginosa 31041 [39] = details: P. aeruginosa 31041
# VRSA 10 [40] = tested on: VRSA 10
# E. cloacae 1134 [41] = details: E. cloacae 1134; ESKAPE pathogens
# VRSA 5 [42] = tested on: VRSA 5
# P. aeruginosa 50573 [43] = details: P. aeruginosa 50573; ESKAPE pathogens
# P. aeruginosa 31040 [44] = details: P. aeruginosa 31040
# L. monocytogenes 191112 [45] = details: L. monocytogenes 191112; enteric pathogens
# K. pneumoniae 1706 [46] = details: K. pneumoniae 1706; ESKAPE pathogens
molecule,measurement,setting,value
"CN[C@H](CC(C)C)C(=O)N[C@H]1C(=O)N[C@@H](CC(N)=O)C(=O)N[C@H]2C(=O)N[C@H]3C(=O)N[C@H](C(=O)N[C@H](C(=O)O)c4cc(O)cc(O)c4-c4cc3ccc4O)[C@H](O)c3ccc(c(Cl)c3)Oc3cc2cc(c3O[C@@H]2O[C@H](CO)[C@@H](O)[C@H](O)[C@H]2O[C@H]2C[C@](C)(N)[C@H](O)[C@H](C)O2)Oc2ccc(cc2Cl)[C@H]1O [Vancomycin, vancomycin]",MIC,VRSA 5 [1],4 µM
same,MIC,S. aureus NRS 384 [2],0.5 µM
same,MIC,S. enteritidis [3],> 32 µM
same,MIC,P. aeruginosa 50573 [4],> 32 µM
same,MIC,E. coli 21922 [5],> 32 µM
same,MIC,P. aeruginosa 48982 [6],> 32 µM
same,MIC,S. typhimurium LT2 [7],> 32 µM
same,MIC,A. baumannii 1605 [8],8 µM
same,MIC,A baumannii 19606 [9],32 µM
same,MIC,L. monocytogenes 191112 [10],1 µM
same,MIC,S. aureus ATCC 6538 [11],0.5 µM
same,MIC,S. flexneri 1a; Shigella flexneri,> 32 µM
same,MIC,"S. aureus RN 4220; Staphylococcus aureus, RN4220",0.5 µM
same,MIC,S. aureus NRS 382 [12],1 µM
same,MIC,E. cloacae 1134 [13],> 32 µM
same,MIC,K. pneumonia NR 41920 [14],> 32 µM
same,MIC,S. aureus NRS 383 [15],4 µM
same,MIC,P. aeruginosa 31041 [16],> 32 µM
same,MIC,E. faecium 700221 [17],> 32 µM
same,MIC,K. pneumonia NR 41928 [18],> 32 µM
same,MIC,P. aeruginosa 31040 [19],> 32 µM
same,MIC,K. pneumoniae 1706 [20],> 32 µM
same,MIC,A. baumannii 1747 [21],> 32 µM
same,MIC,VRSA 10 [22],> 32 µM
same,MIC,S. epidermidis NRS 101 [23],2 µM
gentamicin,MIC,S. aureus NRS 383 [24],>32 µM
same,MIC,S. aureus NRS 382 [25],0.5 µM
same,MIC,S. typhimurium LT2 [26],0.5 µM
same,MIC,A. baumannii 1747 [27],0.25 µM
same,MIC,A. baumannii 1605 [28],>32 µM
same,MIC,S. aureus NRS 384 [29],0.5 µM
same,MIC,S. epidermidis NRS 101 [30],32 µM
same,MIC,K. pneumonia NR 41928 [31],1 µM
same,MIC,S. enteritidis [32],0.25 µM
same,MIC,K. pneumonia NR 41920 [33],1 µM
same,MIC,E. coli 21922 [34],2 µM
same,MIC,E. faecium 700221 [35],>32 µM
same,MIC,P. aeruginosa 48982 [36],>32 µM
same,MIC,A baumannii 19606 [37],16 µM
same,MIC,S. flexneri 1a,0.5 µM
same,MIC,S. aureus RN 4220,0.5 µM
same,MIC,S. aureus ATCC 6538 [38],0.125 µM
same,MIC,P. aeruginosa 31041 [39],32 µM
same,MIC,VRSA 10 [40],0.5 µM
same,MIC,E. cloacae 1134 [41],0.5 µM
same,MIC,VRSA 5 [42],0.5 µM
same,MIC,P. aeruginosa 50573 [43],0.25 µM
same,MIC,P. aeruginosa 31040 [44],16 µM
same,MIC,L. monocytogenes 191112 [45],0.5 µM
same,MIC,K. pneumoniae 1706 [46],2 µM

# Source: US10875895B2, “Antibacterial cell-penetrating peptides” (Purdue Research Foundation, priority 2018, dated 2020)
